Assay results reported in US20030148377A1, “Binding compounds and methods for identifying binding compounds” (priority 2000, published 2003).

Columns and labels:
Format in all cases: cell-based
[1] = tested on: human IL-2 promoter luciferase reporter in Jurkat cells; assay: IL-2 reporter gene analysis, PMA plus ionomycin (pathway that circumvents ZAP-70); conditions: 10 μM peptide; phorbol ester plus ionomycin; FIG. 2G
Method: (§1) Penetratin-containing peptides (FIG. 2A; peptide 7 (SEQ ID NO: 11) or peptide 8 (SEQ ID NO: 12)) were dissolved in DMSO and diluted to 20 μM in 500 μl of serum-free RPMI1640 medium. Ten million Jurkat cells, suspended in 500 μl of serum-free RPMI1640, were added to the peptide solutions for diluted DMSO control and incubated for 30 min at 37° C. Peptide-pretreated cells were treated with 1 μg of the anti-CD3ε mAb at 4° C. for 10 min, followed by another 10 min incubation in the presence of 5 μg of rabbit anti-mouse Ig. Cells were activated by shifting the temperature to 37° C. for 2 min and subsequently lysed in 1% NP40 lysis buffer. […] Luciferase activities from lysates were measured using a Dual-Luciferase Reporter System and Monolight 2010 luminometer.
(§2) Jurkat cells were electroporated at 250V, 800 μF settings (Invitrogen Life Technologies, Carlsbad, Calif.), in the presence of 10 μg of plasmid carrier DNA (pCAGGS vector), 100 ng of Renilla luciferase control vector (pRL null), and 2.5 μg of a luciferase reporter gene whose transcriptional activity is controlled by the human IL-2 promoter (IL-2-Luc). […] Luciferase activities from lysates were measured using a Dual-Luciferase Reporter System (Promega, Madison, Wis.) and Monolight 2010 luminometer (Analytical Luminescence Laboratory, San Diego, Calif.). […]

[2] = tested on: human IL-2 promoter luciferase reporter in Jurkat cells; assay: IL-2 reporter gene analysis, anti-CD3ε mAb plus PMA (ZAP-70-dependent pathway); conditions: 10 μM peptide; anti-CD3 plus phorbol ester as stimulant, 2 hr; FIG. 2F
Method: as §1, §2

[3] = tested on: Tyr phosphorylation of PLCγ1 or LAT in Jurkat cells; assay: Anti-CD3-dependent Tyr phosphorylation of PLCγ1 or LAT in Jurkat cells; conditions: CD3ε cross-linking
Method: Penetratin-containing peptides (FIG. 2A; peptide 7 (SEQ ID NO: 11) or peptide 8 (SEQ ID NO: 12)) were dissolved in DMSO and diluted to 20 μM in 500 μl of serum-free RPMI1640 medium. Ten million Jurkat cells, suspended in 500 μl of serum-free RPMI1640, were added to the peptide solutions for diluted DMSO control and incubated for 30 min at 37° C. Peptide-pretreated cells were treated with 1 μg of the anti-CD3ε mAb at 4° C. for 10 min, followed by another 10 min incubation in the presence of 5 μg of rabbit anti-mouse Ig. Cells were activated by shifting the temperature to 37° C. for 2 min and subsequently lysed in 1% NP40 lysis buffer. Lysates were immunoprecipitated with either the 4G10 anti-phosphotyrosine mAb (FIG. 2B; lanes 1-5), or with anti-PLCγ1 antibody (FIG. 2B; lanes 6-10), or with anti-LAT antibody (FIG. 2D; lane 11-15), and immunoblotted with the HRP-conjugated anti-phosphotyrosine Ab, RC20H. Lanes 1, 2, 6, 7, 11 and 12 corresponded to untreated Jurkat cells; lysates in lanes 3, 8, and 13 were prepared from cells treated with DMSO; lysates in lanes 4, 9, and 14 were prepared from cells treated with peptide 7; lysates in lanes 5, 10, and 15 were prepared from cells treated with peptide 8. (−) indicates nonstimulated cells; (+) indicates stimulation by CD3ε cross-linking. Each blot was stripped and reprobed with anti-PLCγ1 antibody (FIG. 2C) or anti-LAT antibody (FIG. 2E). Jurkat cells were electroporated in the presence of 10 μg of plasmid carrier DNA, 100 ng of Renilla luciferase control vector, and 2.5 μg of a luciferase reporter gene. Transfectants were treated with 10 μM of peptide 7, peptide 8, or DMSO as described above. Treated cells were stimulated with plate-bound anti-CD3ε mAb and 10 ng/ml of PMA (phorbol 12-myristate-13-acetate; FIG. 2F), or 10 ng/ml of PMA plus 2 μM of ionomycin (FIG. 2G) at 37° C. for 2 hr. Luciferase activities from lysates were measured using a Dual-Luciferase Reporter System and Monolight 2010 luminometer. […]

## peptide 8: chimeric peptide with penetratin at the N terminus and peptide 4 at the C terminus (RQIKIWFQNRRMKWKKKLILFLLLL)
[1]
  effect on IL-2 reporter gene expression (in words): no effect on gene expression
[2]
  inhibition of gene expression (IL-2 reporter): more than 70%
[3]; 30 min peptide pretreatment at 37° C., anti-phosphotyrosine blot, FIG. 2B
  effect on anti-CD3-stimulated Tyr-phosphorylation of most proteins (in words): little effect on most of these proteins
[3]; anti-LAT immunoprecipitates, FIG. 2D lane 15
  Tyr phosphorylation of LAT (in words): reduced the Tyr phosphorylation
[3]; anti-PLCγ1 immunoprecipitates, FIG. 2B lane 10
  Tyr phosphorylation of PLCγ1 (in words): reduced the Tyr phosphorylation of PLCγ1
